Here are results for 20 molecules from patent US12226424B2, “Target protein degradation compounds, their anti-tumor use, their intermediates and use of intermediates” (ShanghaiTech University, priority 2018, dated 2025).

The first assay concerns CDK4/6 protein. Nature of the assay: Western-blot determination of CDK4/6 protein degradation (DC50) in T-47D cells. Type of assay: cell-based, human. Conditions: 24 h drug treatment, read-out: DC50(nM)/T-47D cell line.
As for `Cc1nc2c(F)cc(-c3nc(Nc4ccc(CN5CCN(C(=O)CCCCCCSc6cccc7c6CN(C6CCC(=O)NC6=O)C7=O)CC5)cn4)ncc3F)cc2n1C(C)C` (centres unmarked) [SIAIS262169, 3-(4-((7-(4-((6-((5-fluoro-4-(4-fluoro-1-isopropyl-2-methyl-1H-benzo[d]imidazol-6-yl)pyrimidin-2-yl)amino)pyridin-3-yl)methyl)piperazin-1-yl)-7-oxoheptyl)thio)-1-oxoisoindolin-2-yl)piperidine-2,6-dione], the DC50 was 5 nM. Still for that read-out and setting: the figure for `Cc1nc2c(F)cc(-c3nc(Nc4ccc(CN5CCN(C(=O)CCCCCCCCCCSc6cccc7c6CN(C6CCC(=O)NC6=O)C7=O)CC5)cn4)ncc3F)cc2n1C(C)C` (centres unmarked) [SIAIS262170, 3-(4-((11-(4-((6-((5-fluoro-4-(4-fluoro-1-isopropyl-2-methyl-1H-benzo[d]imidazol-6-yl)pyrimidin-2-yl)amino)pyridin-3-yl)methyl)piperazin-1-yl)-11-oxoundecyl)thio)-1-oxoisoindolin-2-yl)piperidine-2,6-dione] is 50 nM.

Regarding `Cc1nc2c(F)cc(-c3nc(Nc4ccc(CN5CCN(C(=O)COCCSc6cccc7c6CN(C6CCC(=O)NC6=O)C7=O)CC5)cn4)ncc3F)cc2n1C(C)C` (centres unmarked) [SIAIS262171, 3-(4-((2-(2-(4-((6-((5-fluoro-4-(4-fluoro-1-isopropyl-2-methyl-1H-benzo[d]imidazol-6-yl)pyrimidin-2-yl)amino)pyridin-3-yl)methyl)piperazin-1-yl)-2-oxoethoxy)ethyl)thio)-1-oxoisoindolin-2-yl)piperidine-2,6-dione], the DC50 worked out at 0.5 nM. On the same count and under the same terms, the figure for `Cc1nc2c(F)cc(-c3nc(Nc4ccc(CN5CCN(CCCCCCSc6cccc7c6CN(C6CCC(=O)NC6=O)C7=O)CC5)cn4)ncc3F)cc2n1C(C)C` (centres unmarked) [SIAIS262173, 3-(4-((6-(4-((6-((5-fluoro-4-(4-fluoro-1-isopropyl-2-methyl-1H-benzo[d]imidazol-6-yl)pyrimidin-2-yl)amino)pyridin-3-yl)methyl)piperazin-1-yl)hexyl)thio)-1-oxoisoindolin-2-yl)piperidine-2,6-dione] is 0.05 to 0.5 nM.

For a further assay, the system named is K562 cells (BCR-ABL positive). Nature of the assay: Half inhibitory concentration (IC50) on tumor cells, CCK-8, K562. To be noted: Homo sapiens, K562, 48 h, read-out: IC50 (nM)/K562 cell line.
Take `COc1cc(Nc2c(C#N)cnc3cc(OCCCN4CCN(C(=O)CCCSc5cccc6c5C(=O)N(C5CCC(=O)NC5=O)C6=O)CC4)c(OC)cc23)c(Cl)cc1Cl` (centres unmarked) [SIAIS151170, 4-((2,4-dichloro-5-methoxyphenyl)amino)-7-(3-(4-(4-((2-(2,6-dioxopiperidin-3-yl)-1,3-dioxoisoindolin-4-yl)thio)butanoyl)piperazin-1-yl)propoxy)-6-methoxyquinoline-3-carbonitrile]: the IC50 turned out to be 400 nM. Still for that read-out and setting: the figure for `COc1cc(Nc2c(C#N)cnc3cc(OCCCN4CCN(C(=O)CCCCSc5cccc6c5C(=O)N(C5CCC(=O)NC5=O)C6=O)CC4)c(OC)cc23)c(Cl)cc1Cl` (centres unmarked) [SIAIS151171, 4-((2,4-dichloro-5-methoxyphenyl)amino)-7-(3-(4-(5-((2-(2,6-dioxopiperidin-3-yl)-1,3-dioxoisoindolin-4-yl)thio)pentanoyl)piperazin-1-yl)propoxy)-6-methoxyquinoline-3-carbonitrile] is 1540 nM; for `COc1cc(Nc2c(C#N)cnc3cc(OCCCN4CCN(C(=O)CCCCCSc5cccc6c5C(=O)N(C5CCC(=O)NC5=O)C6=O)CC4)c(OC)cc23)c(Cl)cc1Cl` (centres unmarked) [SIAIS151172, 4-((2,4-dichloro-5-methoxyphenyl)amino)-7-(3-(4-(6-((2-(2,6-dioxopiperidin-3-yl)-1,3-dioxoisoindolin-4-yl)thio)hexanoyl)piperazin-1-yl)propoxy)-6-methoxyquinoline-3-carbonitrile] it is 1370 nM; for `COc1cc(Nc2c(C#N)cnc3cc(OCCCN4CCN(C(=O)CCCCCCSc5cccc6c5C(=O)N(C5CCC(=O)NC5=O)C6=O)CC4)c(OC)cc23)c(Cl)cc1Cl` (centres unmarked) [SIAIS151173, 4-((2,4-dichloro-5-methoxyphenyl)amino)-7-(3-(4-(7-((2-(2,6-dioxopiperidin-3-yl)-1,3-dioxoisoindolin-4-yl)thio)heptanoyl)piperazin-1-yl)propoxy)-6-methoxyquinoline-3-carbonitrile] it is 8260 nM. Still for that read-out and setting: the figure for `Cc1nc(Nc2ncc(C(=O)Nc3c(C)cccc3Cl)s2)cc(N2CCN(CCCSc3cccc4c3CN(C3CCC(=O)NC3=O)C4=O)CC2)n1` (centres unmarked) [SIAIS171181, N-(2-chloro-6-methylphenyl)-2-((6-(4-(3-((2-(2,6-dioxopiperidin-3-yl)-1-oxoisoindolin-4-yl)thio)propyl)piperazin-1-yl)-2-methylpyrimidin-4-yl)amino)thiazole-5-carboxamide] is 0.09 nM; for `Cc1ccc(C(=O)Nc2ccc(CN3CCN(C(=O)CCSc4cccc5c4C(=O)N(C4CCC(=O)NC4=O)C5=O)CC3)c(C(F)(F)F)c2)cc1C#Cc1cnc2cccnn12` (centres unmarked) [SIAIS220046, N-(4-((4-(3-((2-(2,6-dioxopiperidin-3-yl)-1,3-dioxoisoindolin-4-yl)thio)propanoyl)piperazin-1-yl)methyl)-3-(trifluoromethyl)phenyl)-3-(imidazo[1,2-b]pyridazin-3-ylethynyl)-4-methylbenzamide] it is 2.97 nM. For the molecule `Cc1ccc(C(=O)Nc2ccc(CN3CCN(C(=O)CCCSc4cccc5c4C(=O)N(C4CCC(=O)NC4=O)C5=O)CC3)c(C(F)(F)F)c2)cc1C#Cc1cnc2cccnn12` (centres unmarked) [SIAIS220047, N-(4-((4-(4-((2-(2,6-dioxopiperidin-3-yl)-1,3-dioxoisoindolin-4-yl)thio)butanoyl)piperazin-1-yl)methyl)-3-(trifluoromethyl)phenyl)-3-(imidazo[1,2-b]pyridazin-3-ylethynyl)-4-methylbenzamide], the IC50 turned out to be 3.23 nM. With `Cc1ccc(C(=O)Nc2ccc(CN3CCN(C(=O)CCCCSc4cccc5c4C(=O)N(C4CCC(=O)NC4=O)C5=O)CC3)c(C(F)(F)F)c2)cc1C#Cc1cnc2cccnn12` (centres unmarked) [SIAIS220048, N-(4-((4-(5-((2-(2,6-dioxopiperidin-3-yl)-1,3-dioxoisoindolin-4-yl)thio)pentanoyl)piperazin-1-yl)methyl)-3-(trifluoromethyl)phenyl)-3-(imidazo[1,2-b]pyridazin-3-ylethynyl)-4-methylbenzamide], the IC50 was 4.06 nM.

As to `Cc1ccc(C(=O)Nc2ccc(CN3CCN(C(=O)CCCCCSc4cccc5c4C(=O)N(C4CCC(=O)NC4=O)C5=O)CC3)c(C(F)(F)F)c2)cc1C#Cc1cnc2cccnn12` (centres unmarked) [SIAIS220049, N-(4-((4-(6-((2-(2,6-dioxopiperidin-3-yl)-1,3-dioxoisoindolin-4-yl)thio)hexanoyl)piperazin-1-yl)methyl)-3-(trifluoromethyl)phenyl)-3-(imidazo[1,2-b]pyridazin-3-ylethynyl)-4-methylbenzamide], the IC50 stood at 5.75 nM. On the same count and under the same terms, the figure for `Cc1ccc(C(=O)Nc2ccc(CN3CCN(C(=O)CCCCCCSc4cccc5c4C(=O)N(C4CCC(=O)NC4=O)C5=O)CC3)c(C(F)(F)F)c2)cc1C#Cc1cnc2cccnn12` (centres unmarked) [SIAIS220050, N-(4-((4-(7-((2-(2,6-dioxopiperidin-3-yl)-1,3-dioxoisoindolin-4-yl)thio)heptanoyl)piperazin-1-yl)methyl)-3-(trifluoromethyl)phenyl)-3-(imidazo[1,2-b]pyridazin-3-ylethynyl)-4-methylbenzamide] is 12.8 nM. As to `Cc1ccc(C(=O)Nc2ccc(CN3CCN(C(=O)CSc4cccc5c4CN(C4CCC(=O)NC4=O)C5=O)CC3)c(C(F)(F)F)c2)cc1C#Cc1cnc2cccnn12` (centres unmarked) [SIAIS220051, N-(4-((4-(2-((2-(2,6-dioxopiperidin-3-yl)-1-oxoisoindolin-4-yl)thio)acetyl)piperazin-1-yl)methyl)-3-(trifluoromethyl)phenyl)-3-(imidazo[1,2-b]pyridazin-3-ylethynyl)-4-methylbenzamide], the IC50 was 1.78 nM. As to `Cc1ccc(C(=O)Nc2ccc(CN3CCN(C(=O)CCSc4cccc5c4CN(C4CCC(=O)NC4=O)C5=O)CC3)c(C(F)(F)F)c2)cc1C#Cc1cnc2cccnn12` (centres unmarked) [SIAIS220052, N-(4-((4-(3-((2-(2,6-dioxopiperidin-3-yl)-1-oxoisoindolin-4-yl)thio)propanoyl)piperazin-1-yl)methyl)-3-(trifluoromethyl)phenyl)-3-(imidazo[1,2-b]pyridazin-3-ylethynyl)-4-methylbenzamide], the IC50 is 2.62 nM. On the same count and under the same terms, the figure for `Cc1ccc(C(=O)Nc2ccc(CN3CCN(C(=O)CCCSc4cccc5c4CN(C4CCC(=O)NC4=O)C5=O)CC3)c(C(F)(F)F)c2)cc1C#Cc1cnc2cccnn12` (centres unmarked) [SIAIS220053, N-(4-((4-(4-((2-(2,6-dioxopiperidin-3-yl)-1-oxoisoindolin-4-yl)thio)butanoyl)piperazin-1-yl)methyl)-3-(trifluoromethyl)phenyl)-3-(imidazo[1,2-b]pyridazin-3-ylethynyl)-4-methylbenzamide] is 4.06 nM; for `Cc1ccc(C(=O)Nc2ccc(CN3CCN(C(=O)CCCCSc4cccc5c4CN(C4CCC(=O)NC4=O)C5=O)CC3)c(C(F)(F)F)c2)cc1C#Cc1cnc2cccnn12` (centres unmarked) [SIAIS220054, N-(4-((4-(5-((2-(2,6-dioxopiperidin-3-yl)-1-oxoisoindolin-4-yl)thio)pentanoyl)piperazin-1-yl)methyl)-3-(trifluoromethyl)phenyl)-3-(imidazo[1,2-b]pyridazin-3-ylethynyl)-4-methylbenzamide] it is 2.68 nM. Same read-out and setting: the figure for `Cc1ccc(C(=O)Nc2ccc(CN3CCN(C(=O)CCCCCSc4cccc5c4CN(C4CCC(=O)NC4=O)C5=O)CC3)c(C(F)(F)F)c2)cc1C#Cc1cnc2cccnn12` (centres unmarked) [SIAIS220055, N-(4-((4-(6-((2-(2,6-dioxopiperidin-3-yl)-1-oxoisoindolin-4-yl)thio)hexanoyl)piperazin-1-yl)methyl)-3-(trifluoromethyl)phenyl)-3-(imidazo[1,2-b]pyridazin-3-ylethynyl)-4-methylbenzamide] is 5.58 nM. Same read-out and setting: the figure for `Cc1ccc(C(=O)Nc2ccc(CN3CCN(C(=O)CCCCCCSc4cccc5c4CN(C4CCC(=O)NC4=O)C5=O)CC3)c(C(F)(F)F)c2)cc1C#Cc1cnc2cccnn12` (centres unmarked) [SIAIS220056, N-(4-((4-(7-((2-(2,6-dioxopiperidin-3-yl)-1-oxoisoindolin-4-yl)thio)heptanoyl)piperazin-1-yl)methyl)-3-(trifluoromethyl)phenyl)-3-(imidazo[1,2-b]pyridazin-3-ylethynyl)-4-methylbenzamide] is 5.98 nM.
